Assay results taken from article PMC8161026, “Synthesis and Anticancer Activity Evaluation of 5-[2-Chloro-3-(4-nitrophenyl)-2-propenylidene]-4-thiazolidinones” (Molecules, 2021).

Experiments:
[1] = system: MDA-MB-435; experiment: NCI DTP 60 cell line screen, SRB; settings: for GI50 / CC50: Homo sapiens, MDA-MB-435, 48 h; for CC50: read-out: LC50; for TGI: MDA-MB-435 (Breast Cancer), 48 h, SRB
[2] = system: MCF-7 (breast cancer); experiment: MTT cell viability assay; type: cell-based; settings: Homo sapiens, MCF7; MCF-7, MTT, 24 h
Procedure: (§1) In the second stage of the research, Ciminalum-thiazolidinone hybrids were investigated for antitumor activity on the lines of gastric cancer (AGS), human colon cancer (DLD-1), and breast cancers (MCF-7 and MDA-MB-231). The study was performed in the MTT assay according to the method described previously. The studied cancer line was sensitive to the action of the studied compounds that inhibited its growth in micromolar ranges of GI50. The hit compounds that inhibited the growth of all four cancer lines with the lowest GI50 values were [5-[2-chloro-3-(4-nitrophenyl)prop-2-enylidene]-rhodanines 2c, 2d, 2h, and 2i (Table 4).

[3] = system: MDA-MB-231 (breast cancer); experiment: MTT cell viability assay; type: cell-based; settings: Homo sapiens; MDA-MB-231, MTT, 24 h
Procedure: as §1

[4] = system: DLD-1 (human colon cancer); experiment: MTT cell viability assay; type: cell-based; settings: DLD-1, MTT, 24 h
Procedure: as §1

[5] = system: AGS (gastric cancer); experiment: MTT cell viability assay; type: cell-based; settings: Homo sapiens, 24 h
Procedure: as §1

[6] = system: KM12; experiment: cells; settings: Homo sapiens, KM12, 48 h; for CC50: read-out: LC50
[7] = system: HS 578T; experiment: NCI DTP 60 cell line screen, SRB; settings: 48 h; for TGI: HS 578T (Breast Cancer), SRB; for GI50 / CC50: Homo sapiens, Hs-578T; for CC50: read-out: LC50
[8] = system: HCC-2998; experiment: NCI DTP 60 cell line screen, SRB; settings: for TGI: HCC-2998 (Colon Cancer), 48 h, SRB; for GI50 / CC50: Homo sapiens, HCC 2998, 48 h; for CC50: read-out: LC50
[9] = system: NCI-H522; experiment: NCI DTP 60 cell line screen, SRB; settings: for GI50 / CC50: Homo sapiens, NCI-H522, 48 h; for CC50: read-out: LC50; for TGI: NCI-H522 (Non-Small Cell Lung Cancer), 48 h, SRB
[10] = system: NCI-H23; experiment: cells; settings: Homo sapiens, NCI-H23, 48 h; for CC50: read-out: LC50
[11] = system: SW-620; settings: SW-620 (Colon Cancer), 48 h, SRB
[12] = system: SR; experiment: cells; settings: Homo sapiens, 48 h; for CC50: read-out: LC50
[13] = system: SF-268; experiment: NCI DTP 60 cell line screen, SRB; settings: for GI50 / CC50: Homo sapiens, SF-268, 48 h; for CC50: read-out: LC50; for TGI: SF-268 (CNS Cancer), 48 h, SRB
[14] = system: MCF-7; experiment: NCI DTP 60 cell line screen, SRB; settings: for GI50 / CC50: Homo sapiens, MCF7, 48 h; for CC50: read-out: LC50; for TGI: MCF-7 (Breast Cancer), 48 h, SRB
[15] = system: normal human blood lymphocytes; experiment: in vitro
Procedure: (§2) Another part of our study was to determine the influence of compounds 2f, 2i, 2j, and 2h on normal human blood lymphocytes (Figure 5). […] Thus, normal blood lymphocytes are blood cells, as well as cells of leukemia cell lines, therapeutic index (TI) of compounds 2f, 2h, and 2j was calculated as GI50 (normal blood lymphocyte)/GI50 (leukemia cell line) (Table 5).
(§3) Figure 5 Human lymphocyte viability after 48 h of 2f, 2i, 2j, 2h, and Ciminalum drug exposure was estimated by MTT assay.
(§4) The assay was performed by using 3-(4,5-dimethylthiazole-2-yl)- 2,5-diphenyltetrazolium bromide (MTT). Confluent cells, cultured for 24 h with 0.1, 1, 5, 10, 20, 30, and 100 µM concentrations of studied compounds in 24-well plates were washed with PBS. MTT was dissolved in PBS, and 25 µL were added to each well. Plates were incubated for 4 h at 37 °C in 5% CO2 in an incubator. The medium with MTT was removed, and 1 mL of DMSO was added to the attached cells. Furthermore, cells were incubated for 5–10 min in RT and then 10 µl of Sorensen buffer was added to each well. The absorbance of converted dye in living cells was measured at a wavelength of 570 nm. The cell viability of breast cancer cells, gastric cancer cells, and human colon cancer cells cultured in the presence of ligands was calculated as percent of control cells.
(§5) First, 20 mL of venous blood was taken from volunteers (Ethical protocol number 2, 27 January 2019) and collected in the presence of 200 μL of undiluted fresh heparin (1/100). Sterile blood was diluted 2 times with 0.9% NaCl under the sterile conditions. Isolation of lymphocytes was performed in a density gradient of ficol-verografin using the protocol of the manufacturer (Lympoprep, NYCOMED PHARMA AS, Oslo Norway). The resulting lymphocytes were resuspended in the RPMI-1640 medium and cultured for several days (up to 10 days). To separate the lymphocytes from the monocytes, cell suspension was left for 24 h. After 24 h of culture, monocytes were attached, while lymphocytes were transferred to a fresh Falcon tube (15 mL). To stimulate the proliferation of lymphocytes, they were cultured on CD3+ antibody-coated plastic plate in the RPMI-1640 medium supplemented with 20% FBS.

[16] = in vitro; settings: human
Procedure: as §2, §3, §4, §5

[17] = system: breast cancer lines MCF-7 and MDA-MB-231; experiment: MTT cell viability assay, both breast cancer lines; type: cell-based; settings: Homo sapiens; MCF-7 and MDA-MB-231, MTT; read-out: GI50 level
Procedure: as §1

[18] = system: RXF 393; experiment: cells; settings: Homo sapiens, RXF 393, 48 h; for CC50: read-out: LC50
[19] = system: RXF 393; settings: RXF 393 (Renal Cancer), 48 h, SRB
[20] = system: MDA-MB-468; experiment: NCI DTP 60 cell line screen, SRB

O=C1NC(=S)S/C1=C\C(Cl)=C\c1ccc([N+](=O)[O-])cc1 [Compound 2b, 5-[(Z,2Z)-2-Chloro-3-(4-nitrophenyl)-2-propenylidene]-2-thioxo-4-thiazolidinone]
GI50 [1]: 8.57 µM
CC50 [1]: > 50 µM
TGI [1]: 47.9 µM
GI50 [2]: 4.79 µM
GI50 [3]: 10.6 µM
GI50 [4]: 8.39 µM
GI50 [5]: 7.86 µM
GI50 [6]: 5.27 µM
CC50 [6]: 40.4 µM
TGI [7]: 12.1 µM
GI50 [7]: 1.42 µM
CC50 [7]: > 50 µM
TGI [8]: 11.7 µM
GI50 [8]: 5.43 µM
CC50 [8]: 25 µM
GI50 [9]: 3.19 µM
CC50 [9]: 42.3 µM
TGI [9]: 13.1 µM
GI50 [10]: 3.27 µM
CC50 [10]: 45.5 µM
TGI [11]: 7.62 µM
GI50 [12]: 1.18 µM
CC50 [12]: > 50 µM
GI50 [13]: 5.24 µM
CC50 [13]: > 50 µM
TGI [13]: 18.9 µM
GI50 [14]: 2.14 µM
CC50 [14]: > 50 µM
TGI [14]: 38.0 µM

O=C1/C(=C/C(Cl)=C/c2ccc([N+](=O)[O-])cc2)SC(=S)N1/N=C\C(Cl)=C\c1ccc([N+](=O)[O-])cc1 [Compound 2c, 5-[(Z,2Z)-2-Chloro-3-(4-nitrophenyl)-2-propenylidene]-3-[(Z,2Z)-2-chloro-3-(4-nitrophenyl)-2-propenylideneamino]-2-thioxo-4-thiazolidinone]
GI50 [1]: 20.3 µM
CC50 [1]: 86.3 µM
TGI [1]: 41.9 µM
GI50 [2]: 3.6 µM
GI50 [3]: 1.59 µM
GI50 [4]: 6.34 µM
GI50 [5]: 4.43 µM
GI50 [6]: 20.6 µM
CC50 [6]: > 100 µM
TGI [7]: > 100 µM
GI50 [7]: 29.5 µM
CC50 [7]: > 100 µM
GI50 [9]: 16.3 µM
CC50 [9]: 66.2 µM
TGI [9]: 32.9 µM
GI50 [10]: 16.6 µM
CC50 [10]: 60.3 µM
TGI [11]: > 100 µM
GI50 [12]: 3.67 µM
CC50 [12]: > 100 µM
GI50 [13]: 17 µM
CC50 [13]: > 100 µM
TGI [13]: 41.3 µM
GI50 [14]: 4.08 µM
CC50 [14]: 83.7 µM
TGI [14]: 19.8 µM

O=C1/C(=C/C(Cl)=C/c2ccc([N+](=O)[O-])cc2)SC(=S)N1c1ccc(O)cc1 [Compound 2f, 5-[(Z,2Z)-2-Chloro-3-(4-nitrophenyl)-2-propenylidene]-3-(4-hydroxyphenyl)-2-thioxo-4-thiazolidinone]
GI50 [1]: 3.5 µM
CC50 [1]: > 100 µM
TGI [1]: 7.71 µM
GI50 [6]: 2.85 µM
CC50 [6]: > 100 µM
toxicity toward normal human blood lymphocytes [15]: low toxicity
GI50 at 48 h [16]: > 100 µM
GI50 [10]: 1.48 µM
CC50 [10]: 6.52 µM
TGI [11]: 1.52 µM
GI50 [12]: 0.01 µM
CC50 [12]: > 100 µM
GI50 [13]: 2.55 µM
CC50 [13]: > 100 µM
TGI [13]: 34.5 µM
GI50 [14]: 0.401 µM
CC50 [14]: > 100 µM
TGI [14]: 28.0 µM

O=C(O)CCN1C(=O)/C(=C/C(Cl)=C/c2ccc([N+](=O)[O-])cc2)SC1=S [Compound 2h, 3-{5-[(Z,2Z)-2-Chloro-3-(4-nitrophenyl)-2-propenylidene]-4-oxo-2-thioxothiazolidin-3-yl}propanoic acid]
GI50 [1]: 1.25 µM
CC50 [1]: 29.3 µM
TGI [1]: 4.12 µM
GI50 [2]: 3.62 µM
GI50 [3]: 1.63 µM
GI50 [4]: 3.67 µM
GI50 [5]: 2.69 µM
GI50 [6]: 0.639 µM
CC50 [6]: > 100 µM
GI50 [17]: 0.95 to 1.74 µM
toxicity toward normal human blood lymphocytes [15]: low toxicity
GI50 at 48 h [16]: 54.5 µM
GI50 [10]: 1.44 µM
CC50 [10]: 7.19 µM
GI50 [18]: 0.105 µM
CC50 [18]: 1.73 µM
TGI [11]: 3.25 µM
GI50 [12]: < 0.01 µM
CC50 [12]: > 100 µM
GI50 [13]: 2.12 µM
CC50 [13]: > 100 µM
TGI [13]: 9.74 µM
TGI [19]: 0.341 µM
GI50 [14]: 0.239 µM
CC50 [14]: > 100 µM
TGI [14]: 14.4 µM

O=C(O)C(Cc1ccccc1)N1C(=O)/C(=C/C(Cl)=C/c2ccc([N+](=O)[O-])cc2)SC1=S (stereo not drawn) [Compound 2j, 2-{5-[(Z,2Z)-2-Chloro-3-(4-nitrophenyl)-2-propenylidene]-4-oxo-2-thioxothiazolidin-3-yl}-3-phenylpropanoic acid]
GI50 [6]: 2.06 µM
CC50 [6]: 9.16 µM
TGI [7]: > 100 µM
GI50 [7]: 4.37 µM
CC50 [7]: > 100 µM
TGI [8]: 3.50 µM
GI50 [8]: 1.96 µM
CC50 [8]: 6.27 µM
toxicity toward normal human blood lymphocytes [15]: low toxicity
GI50 at 48 h [16]: 49 µM
GI50 [9]: 1.72 µM
CC50 [9]: 29.5 µM
TGI [9]: 4.47 µM
GI50 [10]: 2.13 µM
CC50 [10]: > 100 µM
GI50 [18]: 1.54 µM
CC50 [18]: 5.93 µM
GI50 ([20]; Homo sapiens, MDA-MB-468, 48 h): 1.39 µM
CC50 ([20]; Homo sapiens, MDA-MB-468, 48 h, read-out: LC50): 7.71 µM
TGI ([20]; MDA-MB-468 (Breast Cancer), 48 h, SRB): 3.28 µM
TGI [11]: 4.39 µM
GI50 [12]: 2.45 µM
CC50 [12]: > 100 µM
GI50 [13]: 2.21 µM
CC50 [13]: > 100 µM
TGI [13]: > 100 µM
TGI [19]: 3.02 µM
GI50 [14]: 2.38 µM
CC50 [14]: > 100 µM
TGI [14]: 10.7 µM
